Values quoted from earlier work as cited in patent US9023374B2, “Sanitizing compositions” (priority 2009, dated 2015).
Where two headings read alike, the source gives them in different places.

Columns and labels:
feline calicivirus [1] = tested on: feline calicivirus
feline calicivirus [2] = settings: room temperature

SMILES	inactivation of feline calicivirus (feline calicivirus [1])	log10 reduction of feline calicivirus (feline calicivirus [2]; after 8 minutes)	log10 reduction of feline calicivirus (feline calicivirus [2]; after 30 minutes)
CCO [ethanol]	failed to inactivate the virus	–	–
CCO [70% w/w ethanol, ethanol]	–	< 2 log10	3 log10
